Source: patent US20240374535A1, “COMPOSITIONS AND METHODS FOR TREATING BIOFILM DISORDERS AND INFECTIONS” (AHV International B.V., priority 2021, published 2024)
pIC50: −log10 of the molar value. Like-named read-outs stand apart in the source and are kept apart here.

How the values were obtained:
[1] = tested on: Staphylococcus epidermis ATCC 35984; test: MIC assay (planktonic growth inhibition, OD600); assay type: cell-based, S. epidermidis; conditions: for pIC50: read-out: S. epidermidis MIC50; for IC90: read-out: S. epidermidis MIC90
Procedure: (§1) The exact weighed amount was noted and the volume of solvent to reach a 80 mM dilution calculated. Half of the volume was added first, by adding Tween 80. In a second step, the other half of the volume DMSO was added and the closed tube inverted 5-10 times and then vortexed very thoroughly for at least 30 seconds. If after this procedure unsolved material was still visible, the tube was placed in a shaker at 37° C. at 150 rpm for at least 30 minutes. […] For the MBEC assay (method 1.3) the solution needs to be diluted to a final concentration of 2 mM in 0.9% saline solution and then further diluted to 1 mM, 0.5 mM, 0.25 mM and 0.125 mM in saline. Those dilutions were added as treatment to the 96 well plates with the grown biofilm (see method 3).
(§2) Frozen aliquots of Staphylococcus epidermis ATCC 35984 and Pseudomonas aeruginosa ATCC 27853 were used to inoculate a tryptic soy agar (TSA) plate and incubated overnight at 37° C. After incubation 3-5 well-isolated colonies with the same morphology were selected from the TSA plate and resuspended in 2 mL 0.9% saline solution with 3-6 glass beads and vortexed. The optical density at 600 nm (OD600) of the bacterial suspension was measured with a spectrophotometer (Evolution™ 201/220 UV-Visible Spectrophotometer, Thermo Fisher Scientific) and diluted to an OD600 of 0.0008, which resembles 10^6 CFU/mL.
(§3) The MIC assay was performed in a flat-bottom 96-microtiter plate. 50 μL of MHB-II was added into columns 2-11, and 100 μL to column 12 for sterility control. 100 μL of the 8 mM test compound solution (method 1) was added to column 1. A two-fold dilution series of the solution in MHB-II was achieved by resuspending 50 μL of the 8 mM solution from column 1 to column 2. This step was repeated until column 10. The respective concentration of Tween 80 and DMSO in column 1 was 2.5%, which is two-fold diluted throughout the plate. 50 μL of the bacterial suspension was added to column 1-11. The microtiter plates were sealed with adhesive polyethylene film for sealing microplates (Diversified Biotech) and incubated for 24 h at 37° C. After incubation the OD was measured at 600 nm with the Varioskan (Thermo Fisher Scientific). […] This assay was repeated three times in three independent experiments.

[2] = tested on: Pseudomonas aeruginosa ATCC 27853; test: MIC assay (planktonic growth inhibition, OD600); assay type: cell-based, P. aeruginosa; conditions: for pIC50 / IC90: Pseudomonas aeruginosa; for pIC50: read-out: P. aeruginosa MIC50; for IC90: read-out: P. aeruginosa MIC90
Procedure: as §1, §2, §3

[3] = tested on: Staphylococcus epidermis ATCC 35984 biofilm; test: MBEC assay (biofilm eradication, CFU log reduction); assay type: cell-based, S. epidermidis; conditions: for minimal effective concentration: read-out: S. epidermidis MBEC mM with log reduction ≥1
Procedure: as §1
(§4) Frozen aliquots of Staphylococcus epidermis ATCC 35984 and Pseudomonas aeruginosa ATCC 27853 were used to inoculate 20 mL of Tryptic Soy Broth (TSB) in a 100 mL Erlenmeyer flask at 37° C. and 150 rpm and incubated overnight (Infors). The OD600 of the overnight culture was measured with a spectrophotometer (Evolution™ 201/220 UV-Visible Spectrophotometer, Thermo Fisher Scientific) and diluted to an OD600 of 0.2, which resembles 10^8 CFU/mL. The cell suspension of OD600=0.2 was seeded into a U-bottom-shaped 96 well plates by pipetting 100 μL per well in column 1-11, column 12 was filled with 100 μL medium as sterility control. The 96 well plates were sealed with adhesive polyethylene film for sealing microplates and incubated for 48 h at 37° C. at static conditions. After the biofilm growth phase, 100 μL of treatment solutions (method 1) were added to the vials resulting in treatment concentrations of 1 mM, 0.5 mM, 0.25 mM and 0.125 mM and with the respective concentration of Tween 80 and DMSO each at 0.63%, 0.32%, 0.16% and 0.08%. The same concentration was applied to four different wells of the same bacterial strain, resulting in four replicates for each concentration and strain. The treatment was incubated for 20 h at 37° C. at static conditions. After the treatment the supernatant was carefully removed and the well with the biofilm washed carefully for one time with 200 μL 0.9% saline solution. 200 μL saline solution was added and the biofilm was resuspended thoroughly. When fully homogenized then 20 μL was used for the first dilution in 180 μL 0.9% saline solution, which was prepared in a second plate. This dilution was continued until dilution step 10E−5 and 100 μL of the 10E−4 and 10E−5 dilution plated on a TSA plate. The TSA plates were incubated at 37° C. for 24 h. The colonies on the plates were enumerated, the colony forming units per mL of the dispensed biofilm and averages thereof and the log reduction in comparison with the untreated sample from the same wells plate calculated. Reduction of colony forming units goes hand in hand with the thickness of the biofilm and thus with the number bacteria that are present in the biofilm. Therefore, a significant reduction of colony forming units in the biofilm was defined at the value of log reduction ≥1 or more. This assay was repeated two times in two independent experiments)

[4] = tested on: Pseudomonas aeruginosa ATCC 27853 biofilm; test: as above; assay type: cell-based, P. aeruginosa; conditions: for minimal effective concentration: Pseudomonas aeruginosa, read-out: P. aeruginosa MBEC mM with log reduction ≥1
Procedure: as §1, §4

[5] = tested on: Staphylococcus epidermis ATCC 35984 biofilm; test: MBIC assay (biofilm inhibition, crystal violet); assay type: cell-based, S. epidermidis; conditions: 48 h incubation, absorbance 540 nm
Procedure: as §1
(§5) Frozen aliquots of Staphylococcus epidermis ATCC 35984 and Pseudomonas aeruginosa ATCC 27853 were used to inoculate a tryptic soy agar (TSA) plate and were incubated overnight at 37° C. After incubation 3-5 well-isolated colonies with the same morphology were selected from the TSA plate and resuspended in 2 mL 0.9% saline solution with 3-6 glass beads and vortexed. The optical density of the bacterial suspension was measured at 600 nm (OD600) with a spectrophotometer (Evolution™ 201/220 UV-Visible Spectrophotometer, Thermo Fisher Scientific) and diluted to an OD600 of 0.2. The MBIC assay was performed in a 96-microtiter plate. 50 μL of TSB was added into columns 2-11, and 100 μL to column 12 for sterility control. 100 μL of the 8 mM test compound solution (method 1) was added to column 1. A two-fold dilution series of the solution in TSB was achieved by resuspending 50 μL of the 8 mM solution from column 1 in column 2. This step was repeated until column 10. The respective concentration of Tween 80 and DMSO in column 1 is at 2.5%, which is two-fold diluted throughout the plate. 50 μL of the bacterial suspension was added to column 1-11. The microtiter plates were sealed with adhesive polyethylene film for sealing microplates (Diversified Biotech) and incubated for 48 h at 37° C. After incubation the supernatant is carefully removed and the well with the biofilm washed for one time with 100 μL 0.9% saline solution. 100 μL 0.1 M HCl was added and incubated for 1 h at room temperature to fix the biofilm. After incubation the HCl was removed and 100 μL crystal violet (0.1% v/v in water) was added and incubated for 30 min at room temperature. The unbound crystal violet was removed and the wells washed one time with 100 μL demineralized water. 100 μL 30% acetic acid was added and incubated for 1 h at 37° C. and 150 rpm. The solution was resuspended and transferred to a flat-bottom 96-well plate and the absorbance measured at 540 nm with the spectrophotometer. This assay was repeated two times in two independent experiments.

[6] = tested on: Pseudomonas aeruginosa ATCC 27853 biofilm; test: MBIC assay (biofilm inhibition, crystal violet); assay type: cell-based, P. aeruginosa; conditions: 48 h incubation, absorbance 540 nm
Procedure: as §1, §5

udder cleft wound = test: In vivo udder cleft dermatitis test: wound assessment after spray treatment; design: species or system cow; conditions: for Conclusion (effect on udder cleft wound): over 60 days, all cows of the group
Procedure: An example of a biofilm-related disorder is Udder Cleft Dermatitis (UCD), which relates to a chronic wound. In this Example, di-alkyl thiosulfonates, dialkyl thiosulfinates and di-alkyl disulfides were tested for their effect on cows affected by UCD.
Experiments were performed to examine the effect of various sprays containing water (control), a test compound, or a reference compound (CTC spray, which contains chlorotetracycline hydrochloride, and was obtained from Dechra veterinary products).
0.35 mL of the spray was sprayed on an udder cleft wound per treatment. Treatments took place once a day at t=0, at t=3 days and t=6 days. In Table 6, the assessment qualifications that are used in Table 7, are explained.

[7] = minimal concentration reducing final OD600 by 50%, 24 h at 37° C.
[8] = minimal concentration reducing final OD600 by 90%, 24 h at 37° C.
[9] = 48 h grown biofilm, 20 h treatment, CFU log reduction vs untreated
[10] = ATCC27853, minimal concentration reducing final OD600 by 50%, 24 h at 37° C.
[11] = ATCC27853, minimal concentration reducing final OD600 by 90%, 24 h at 37° C.
[12] = ATCC27853, 48 h grown biofilm, 20 h treatment, CFU log reduction vs untreated

S. epidermidis MIC50 [1, 7] [mM]	S. epidermidis MIC90 [1, 8] [mM]	P. aeruginosa MIC50 [2, 7] [mM]	P. aeruginosa MIC90 [2, 8] [mM]	pIC50 [1, 7]	IC90 [1, 8] [mM]	pIC50 [2, 10]	IC90 [2, 11] [mM]	SMILES	S. epidermidis MBEC mM with log reduction ≥1 [3, 9] [mM]	P. aeruginosa MBEC mM with log reduction ≥1 [4, 9] [mM]	S. epidermidis MBIC90 [5] [mM]	P. aeruginosa MBIC90 [6] [mM]	Conclusion (effect on udder cleft wound) (udder cleft wound)	minimal effective concentration [3, 9] [mM]	minimal effective concentration [4, 12] [mM]	other results
2	2	2	4	–	–	–	–	CC(C)S[S+]([O-])C(C)C (stereo not drawn) [Di-isopropyl thiosulfinate]	0.5	0.125	>4	>4	–	–	–	–
1	1	1	1	–	–	–	–	[O-][S+](Sc1ccccc1)c1ccccc1 (stereo not drawn) [Di-phenyl thiosulfinate]	2	2	>4	>4	No effect	–	–	–
0.125	0.25	0.125	0.25	–	–	–	–	Cc1ccc(S[S+]([O-])c2ccc(C)cc2)cc1 (stereo not drawn) [Bis (p-tolyl) thiosulfinate]	1	1	>4	>4	–	–	–	–
–	–	–	–	< 2.40	> 4	< 2.40	> 4	CCCSSCCC [Di-n-propyl disulfide]	–	–	4	>4	Positive effect	> 4	> 4	inflammation of the udder cleft wound after treatment (udder cleft wound; immediately after the treatment, later infection reduced and wound healed): fast inflammation reduction
–	–	–	–	< 2.40	> 4	< 2.40	> 4	Cc1ccc(SSc2ccc(C)cc2)cc1 [Di-p-tolyl disulfide]	–	–	>4	4	No effect	> 1	> 1	–
0.03	0.03	0.06	0.5	–	–	–	–	[O-][S+](Cc1ccccc1)SCc1ccccc1 [D-benzyl thiosulfinate, Di-benzyl thiosulfinate]	1	0.125	4	>4	–	–	–	–
–	–	–	–	–	–	–	–	c1ccc(CSSCc2ccccc2)cc1 [Di-benzyl disulfide]	–	–	–	–	No effect	–	–	pIC50 ([1]; 24 h): < 2.40; IC90 ([1]; 24 h): > 4 mM; pIC50 ([2]; ATCC27853, 24 h): < 2.40; IC90 ([2]; ATCC27853, 24 h): > 4 mM; minimal effective concentration ([3]; 20 h): > 1 mM; minimal effective concentration ([4]; ATCC27853, 20 h): > 1 mM
–	–	–	–	< 2.40	> 4	< 2.40	> 4	COc1ccc(SSc2ccc(OC)cc2)cc1 [Bis (4-methoxyphenyl) disulfide, Bis(4-methoxyphenyl) disulfide]	–	–	–	–	No effect	> 1	> 1	–
–	–	–	–	5.00	0.03	4.70	0.03	Clc1ccc(SSc2ccc(Cl)cc2)cc1 [Bis (4-chlorophenyl) disulfide, Bis(4-chlorophenyl) disulfide]	–	–	>4	>4	–	> 1	> 1	–

SMILES	S. epidermidis MIC50 [1, 7] [mM]	S. epidermidis MIC90 [1, 8] [mM]	P. aeruginosa MIC50 [2, 7] [mM]	P. aeruginosa MIC90 [2, 8] [mM]	pIC50 [1, 7]	IC90 [1, 8] [mM]	pIC50 [2, 10]	IC90 [2, 11] [mM]	S. epidermidis MBEC mM with log reduction ≥1 [3, 9] [mM]	P. aeruginosa MBEC mM with log reduction ≥1 [4, 9] [mM]	S. epidermidis MBIC90 [5] [mM]	P. aeruginosa MBIC90 [6] [mM]	Conclusion (effect on udder cleft wound) (udder cleft wound)	minimal effective concentration [3, 9] [mM]	minimal effective concentration [4, 12] [mM]	other results
c1ccc(SSc2ccccc2)cc1 [Di-phenyl disulfide]	–	–	–	–	3.90	> 4	2.70	> 4	–	–	–	–	No effect	> 1	0.125	–
